# Assay results published in patent publication US20220235014A1, “PROCESS FOR THE PREPARATION OF HIGHLY PURE ERLOTINIB HYDROCHLORIDE” (SHIVALIK RASAYAN LIMITED, priority 2021, published 2022).
# Like-named read-outs stand apart in the source and are kept apart here.
# [1] = 1M storage, table does not say which condition (30° C./65% or 40° C./75% RH)
# [2] = 2M storage, table does not say which condition (30° C./65% or 40° C./75% RH)
# [3] = 3M storage, table does not say which condition (30° C./65% or 40° C./75% RH)
# [4] = 6M storage, table does not say which condition (30° C./65% or 40° C./75% RH)
# [5] = 9M storage, table does not say which condition (30° C./65% or 40° C./75% RH)
smiles,measurement,setting,value
"C#Cc1cccc(Nc2ncnc3cc(OCCOC)c(OCCOC)cc23)c1.Cl [Form SEA, N-(3-ethynylphenyl)-6,7-bis (2-methoxy ethoxy)-4-quinazolinamine hydrochloride]",Assay (by HPLC; on anhydrous basis),[1],99.19% w/w
same,Moisture Content (by KF method),[1],0.24% w/w
same,Assay (by HPLC; on anhydrous basis),[2],101.56% w/w
same,Moisture Content (by KF method),[2],0.26% w/w
same,Assay (by HPLC; on anhydrous basis),[3],101.41% w/w
same,Moisture Content (by KF method),[3],0.21% w/w
same,Assay (by HPLC; on anhydrous basis),[4],99.99% w/w
same,Moisture Content (by KF method),[4],0.17% w/w
same,Assay (by HPLC; on anhydrous basis),[5],100.40% w/w
same,Moisture Content (by KF method),[5],0.42% w/w
same,HPLC purity after 9 months stability,9 months,exceeding 99.8 % w/w by HPLC
same,Assay (by HPLC; on anhydrous basis),"Initial, limit >99.8%",100.84% w/w
same,Moisture Content (by KF method),"Initial, limit not more than 0.5% w/w",0.17% w/w
same,time over which the crystalline form was stable under storage,storage at 30° C./65±5%,up to 12 months
same,time over which the crystalline form was stable under storage,storage at 40° C./75±5%,up to 12 months
